Results as given in BindingDB's records for doi:10.1021/jm960837y (Boehringer Ingelheim Pharmaceuticals, 1997).

What was measured:
[1] = biological target: T1, Gag-Pol polyprotein [600-1027,P835L]/[600-1155,P835L] (Human immunodeficiency virus 1, UniProt P03366, P835L); experiment: HIV-1 RT Assay
T1 construct: 600-1027; 600-1155
From the text: (§1) The IC50 of reverse transcriptase is the concentration that inhibits 50% of recombinant HIV-1 RT RNA-directed DNA polymerase activity in vitro.

[2] = biological target: T2, Gag-Pol polyprotein [600-1027,Y787L]/[600-1155,Y787L] (Human immunodeficiency virus 1, UniProt P03366, Y787L); experiment: HIV-1 RT Assay; settings: pH 7.8; 22 °C
T2 construct: 600-1027; 600-1155
From the text: as §1

Structure (SMILES) | IC50 [1] | IC50 [2]
CCN1c2ncccc2C(=O)N(C)c2ccc(-c3c[nH]c4cnccc34)nc21 [2-ethyl-9-methyl-5-{1H-pyrrolo[2,3-c]pyridin-3-yl}-2,4,9,15-tetraazatricyclo[9.4.0.0^{3,8}]pentadeca-1(11),3(8),4,6,12,14-hexaen-10-one] | < 0.001 µM | 
CCN1c2ncccc2C(=O)N(C)c2ccc(-c3cc[nH]c3)nc21 [2-ethyl-9-methyl-5-(1H-pyrrol-3-yl)-2,4,9,15-tetraazatricyclo[9.4.0.0^{3,8}]pentadeca-1(11),3(8),4,6,12,14-hexaen-10-one] | 0.13 µM | 0.1 µM
